Source: PubChem BioAssay (NCI)
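Cultured in 96-well plates, cells were exposed to test compound for 48 hours across five concentrations. The concentration for 50% growth inhibition is given as GI50. The concentration for full growth arrest is given as TGI.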

Assays:
Assay in all cases: NCI tumour cell line growth inhibition, 48 h
UO-31 renal = system: UO-31 renal
MALME-3M melanoma = system: MALME-3M melanoma
CAKI-1 renal = system: CAKI-1 renal
A498 renal = system: A498 renal
COLO 205 colon = system: COLO 205 colon
HCT-116 colon = system: HCT-116 colon
MOLT-4 leukemia = system: MOLT-4 leukemia
SR leukemia = system: SR leukemia
SNB-19 CNS = system: SNB-19 CNS
SF-268 CNS = system: SF-268 CNS
KM12 colon = system: KM12 colon
HL-60(TB) leukemia = system: HL-60(TB) leukemia
IGROV1 ovarian = system: IGROV1 ovarian
K-562 leukemia = system: K-562 leukemia
TK-10 renal = system: TK-10 renal
NCI-H460 lung = system: NCI-H460 lung
ACHN renal = system: ACHN renal
T-47D breast = system: T-47D breast
RPMI-8226 leukemia = system: RPMI-8226 leukemia
CCRF-CEM leukemia = system: CCRF-CEM leukemia
SN12C renal = system: SN12C renal
MCF7 breast = system: MCF7 breast
UACC-257 melanoma = system: UACC-257 melanoma
BT-549 breast = system: BT-549 breast
HOP-92 NSCLC = system: HOP-92 NSCLC
SF-295 CNS = system: SF-295 CNS
OVCAR-8 ovarian = system: OVCAR-8 ovarian
EKVX NSCLC = system: EKVX NSCLC
786-0 renal = system: 786-0 renal
A549 NSCLC = system: A549 NSCLC
SF-539 CNS = system: SF-539 CNS
DU-145 prostate = system: DU-145 prostate
SK-MEL-5 melanoma = system: SK-MEL-5 melanoma
RXF 393 renal = system: RXF 393 renal
SNB-75 CNS = system: SNB-75 CNS
OVCAR-4 ovarian = system: OVCAR-4 ovarian
HS 578T breast = system: HS 578T breast
NCI/ADR-RES ovarian = system: NCI/ADR-RES ovarian
SK-MEL-28 melanoma = system: SK-MEL-28 melanoma
PC-3 prostate = system: PC-3 prostate
NCI-H226 lung = system: NCI-H226 lung
HCC-2998 colon = system: HCC-2998 colon
NCI-H23 lung = system: NCI-H23 lung
HCT-15 colon = system: HCT-15 colon
MDA-MB-435 = system: MDA-MB-435
HOP-62 NSCLC = system: HOP-62 NSCLC
NCI-H522 lung = system: NCI-H522 lung
OVCAR-3 ovarian = system: OVCAR-3 ovarian
UACC-62 melanoma = system: UACC-62 melanoma
HT29 colon = system: HT29 colon
U251 CNS = system: U251 CNS
MDA-MB-231 breast = system: MDA-MB-231 breast
LOX IMVI melanoma = system: LOX IMVI melanoma
SW-620 colon = system: SW-620 colon
SK-MEL-2 melanoma = system: SK-MEL-2 melanoma
SK-OV-3 ovarian = system: SK-OV-3 ovarian
OVCAR-5 ovarian = system: OVCAR-5 ovarian

CC(C)Cc1cc(-c2cccn2C)c(C#N)c(=O)[nH]1
GI50 (UO-31 renal): > 100 µM | TGI (UO-31 renal): > 100 µM | GI50 (MALME-3M melanoma): > 100 µM | TGI (MALME-3M melanoma): > 100 µM | GI50 (CAKI-1 renal): > 100 µM | TGI (CAKI-1 renal): > 100 µM | GI50 (A498 renal): > 100 µM | TGI (A498 renal): > 100 µM | GI50 (COLO 205 colon): > 100 µM | TGI (COLO 205 colon): > 100 µM | GI50 (HCT-116 colon): > 100 µM | TGI (HCT-116 colon): > 100 µM | GI50 (MOLT-4 leukemia): 22.5 µM | TGI (MOLT-4 leukemia): > 100 µM | GI50 (SR leukemia): 59.7 µM | TGI (SR leukemia): > 100 µM | GI50 (SNB-19 CNS): > 100 µM | TGI (SNB-19 CNS): > 100 µM | GI50 (SF-268 CNS): > 100 µM | TGI (SF-268 CNS): > 100 µM | GI50 (KM12 colon): > 100 µM | TGI (KM12 colon): > 100 µM | GI50 (HL-60(TB) leukemia): 45.8 µM | TGI (HL-60(TB) leukemia): > 100 µM | GI50 (IGROV1 ovarian): > 100 µM | TGI (IGROV1 ovarian): > 100 µM | GI50 (K-562 leukemia): > 100 µM | TGI (K-562 leukemia): > 100 µM | GI50 (TK-10 renal): > 100 µM | TGI (TK-10 renal): > 100 µM | GI50 (NCI-H460 lung): > 100 µM | TGI (NCI-H460 lung): > 100 µM | GI50 (ACHN renal): > 100 µM | TGI (ACHN renal): > 100 µM | GI50 (T-47D breast): > 100 µM | TGI (T-47D breast): > 100 µM | GI50 (RPMI-8226 leukemia): > 100 µM | TGI (RPMI-8226 leukemia): > 100 µM | GI50 (CCRF-CEM leukemia): 23.4 µM | TGI (CCRF-CEM leukemia): > 100 µM | GI50 (SN12C renal): > 100 µM | TGI (SN12C renal): > 100 µM | GI50 (MCF7 breast): > 100 µM | TGI (MCF7 breast): > 100 µM | GI50 (UACC-257 melanoma): > 100 µM | TGI (UACC-257 melanoma): > 100 µM | GI50 (BT-549 breast): > 100 µM | TGI (BT-549 breast): > 100 µM | GI50 (HOP-92 NSCLC): > 100 µM | TGI (HOP-92 NSCLC): > 100 µM | GI50 (SF-295 CNS): > 100 µM | TGI (SF-295 CNS): > 100 µM | GI50 (OVCAR-8 ovarian): > 100 µM | TGI (OVCAR-8 ovarian): > 100 µM | GI50 (EKVX NSCLC): > 100 µM | TGI (EKVX NSCLC): > 100 µM | GI50 (786-0 renal): > 100 µM | TGI (786-0 renal): > 100 µM | GI50 (A549 NSCLC): > 100 µM | TGI (A549 NSCLC): > 100 µM | GI50 (SF-539 CNS): > 100 µM | TGI (SF-539 CNS): > 100 µM | GI50 (DU-145 prostate): > 100 µM | TGI (DU-145 prostate): > 100 µM | GI50 (SK-MEL-5 melanoma): > 100 µM | TGI (SK-MEL-5 melanoma): > 100 µM | GI50 (RXF 393 renal): > 100 µM | TGI (RXF 393 renal): > 100 µM | GI50 (SNB-75 CNS): 40.1 µM | TGI (SNB-75 CNS): > 100 µM | GI50 (OVCAR-4 ovarian): 69.4 µM | TGI (OVCAR-4 ovarian): > 100 µM | GI50 (HS 578T breast): > 100 µM | TGI (HS 578T breast): > 100 µM | GI50 (NCI/ADR-RES ovarian): > 100 µM | TGI (NCI/ADR-RES ovarian): > 100 µM | GI50 (SK-MEL-28 melanoma): > 100 µM | TGI (SK-MEL-28 melanoma): > 100 µM | GI50 (PC-3 prostate): > 100 µM | TGI (PC-3 prostate): > 100 µM | GI50 (NCI-H226 lung): > 100 µM | TGI (NCI-H226 lung): > 100 µM | GI50 (HCC-2998 colon): > 100 µM | TGI (HCC-2998 colon): > 100 µM | GI50 (NCI-H23 lung): > 100 µM | TGI (NCI-H23 lung): > 100 µM | GI50 (HCT-15 colon): > 100 µM | TGI (HCT-15 colon): > 100 µM | GI50 (MDA-MB-435): > 100 µM | TGI (MDA-MB-435): > 100 µM | GI50 (HOP-62 NSCLC): > 100 µM | TGI (HOP-62 NSCLC): > 100 µM | GI50 (NCI-H522 lung): > 100 µM | TGI (NCI-H522 lung): > 100 µM | GI50 (OVCAR-3 ovarian): > 100 µM | TGI (OVCAR-3 ovarian): > 100 µM | GI50 (UACC-62 melanoma): > 100 µM | TGI (UACC-62 melanoma): > 100 µM | GI50 (HT29 colon): > 100 µM | TGI (HT29 colon): > 100 µM | GI50 (U251 CNS): > 100 µM | TGI (U251 CNS): > 100 µM | GI50 (MDA-MB-231 breast): > 100 µM | TGI (MDA-MB-231 breast): > 100 µM | GI50 (LOX IMVI melanoma): > 100 µM | TGI (LOX IMVI melanoma): > 100 µM | GI50 (SW-620 colon): > 100 µM | TGI (SW-620 colon): > 100 µM | GI50 (SK-MEL-2 melanoma): > 100 µM | TGI (SK-MEL-2 melanoma): > 100 µM | GI50 (SK-OV-3 ovarian): > 100 µM | TGI (SK-OV-3 ovarian): > 100 µM | GI50 (OVCAR-5 ovarian): > 100 µM | TGI (OVCAR-5 ovarian): > 100 µM
